Data on two molecules can be found in patent US8476306B2, “Urokinase inhibitors, production and use thereof” (The Medicines Company (Leipzig) GmbH, priority 2002, dated 2013).

pKi: −log10 of the molar value. Where a name gives a salt, the structure may show the parent alone.

One series addresses uPA (Homo sapiens (Human), UniProt P00749). The series is described as follows: Inhibition constants for uPA, determined as in Stürzebecher et al. 1997. The series is classed as biochemical.
Another series has as its target plasmin (Homo sapiens (Human), UniProt P00747). As to the kind of experiment: Inhibition constants for plasmin, determined in analogy to uPA. It counts as biochemical.
A further series concerns the target thrombin (Homo sapiens (Human), UniProt P00734). As to the kind of experiment: Inhibition constants for thrombin, determined in analogy to uPA. The series is classed as biochemical.
Series [1] can be described thus: Elimination (β phase) half-life in rats after intravenous administration, plasma levels by HPLC. Particulars: female, Wistar, rat, plasma, iv, 1 mg/kg.
Method: Female Wistar rats (240-300 g body weight) were anesthetized (ethylurethane, 2.5 g/ml in NaCl, 0.5 ml/100 g rat), after which the A. carotis located in the neck was exposed. A catheter inserted into this vessel enabled blood to be removed at specified times. The volume administered was 0.5 ml, while 0.9% NaCl was used as the administration solution. […] The resultant loss of blood was offset, immediately after removal of the sample, with 500 μl of 0.9% NaCl solution. Citrate plasma was obtained by centrifuging the blood at 1200×g for 10 min.
Series [2] concerns lacZ-labeled human fibrosarcoma cell line (HT1080 AN PKZ12 K15-1). As to the kind of experiment: Inhibiting metastasis in an animal model (lung metastases, lacZ-labeled human fibrosarcoma cells i.v.). Conditions: mice, 2 i.p. doses of 1.5 mg/kg daily from day −1 to day 21, lungs evaluated on day 22. It counts as in vivo, mice (strain CD1 nu/nu). The method, then: The influence of the inhibitor benzylsulfonyl-dSer-Ser-4-amidinobenzylamide on metastasis was investigated in female mice (strain CD1 nu/nu, approx. 25 g body weight, Charles River, Sulzfeld). […] from a lacZ-labeled human fibrosarcoma cell line (HT1080 AN PKZ12 K15-1, dissolved in 200 μl of PBS) were administered to the mice i.v. (Krüger et al., Cancer Metastasis Rev. 1998-99, 17, 285-294 and Krüger et al., Oncogene 1998, 16, 2419-2423). The mice in the treated group (n=17) were given 2 i.p. doses (in each case 1.5 mg/kg) of the inhibitor daily from day −1 (one day before the tumor cell inoculation) through to the 21st day (a total of 23 days). The mice in the control group (n=10) were correspondingly given 200 μl of pyrogen-free water containing 5% (v/v) ethanol. On day 22, the mice were sacrificed and the lungs were fixed in 2% formalin and 0.2% glutaraldehyde; after that, the lungs were stained with X-Gal (5-Br-4-Cl-3-indolyl-β-D-galactoside) and the number of lung metastases was determined.

The target of a further series is trypsin (Bos taurus, UniProt P00760). As to the kind of experiment: Inhibition constants for trypsin, determined in analogy to uPA. The series is classed as biochemical.
Sequence of trypsin (P00760 24-246 limits assumed): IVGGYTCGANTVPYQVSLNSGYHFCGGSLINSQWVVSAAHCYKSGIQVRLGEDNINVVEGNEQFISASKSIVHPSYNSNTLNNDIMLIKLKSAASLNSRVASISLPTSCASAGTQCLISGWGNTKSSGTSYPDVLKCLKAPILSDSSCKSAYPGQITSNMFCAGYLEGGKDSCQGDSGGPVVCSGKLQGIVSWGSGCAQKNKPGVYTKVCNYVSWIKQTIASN

Sequence of plasmin (P00747 581-810, species assumed): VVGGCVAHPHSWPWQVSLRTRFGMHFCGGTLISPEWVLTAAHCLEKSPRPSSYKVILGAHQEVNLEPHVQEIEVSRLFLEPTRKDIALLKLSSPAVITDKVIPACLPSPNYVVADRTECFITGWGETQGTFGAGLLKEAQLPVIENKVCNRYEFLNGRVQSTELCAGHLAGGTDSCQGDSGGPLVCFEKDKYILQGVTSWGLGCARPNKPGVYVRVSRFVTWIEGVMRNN
Sequence of plasmin (P00747 97-580 partner, species assumed): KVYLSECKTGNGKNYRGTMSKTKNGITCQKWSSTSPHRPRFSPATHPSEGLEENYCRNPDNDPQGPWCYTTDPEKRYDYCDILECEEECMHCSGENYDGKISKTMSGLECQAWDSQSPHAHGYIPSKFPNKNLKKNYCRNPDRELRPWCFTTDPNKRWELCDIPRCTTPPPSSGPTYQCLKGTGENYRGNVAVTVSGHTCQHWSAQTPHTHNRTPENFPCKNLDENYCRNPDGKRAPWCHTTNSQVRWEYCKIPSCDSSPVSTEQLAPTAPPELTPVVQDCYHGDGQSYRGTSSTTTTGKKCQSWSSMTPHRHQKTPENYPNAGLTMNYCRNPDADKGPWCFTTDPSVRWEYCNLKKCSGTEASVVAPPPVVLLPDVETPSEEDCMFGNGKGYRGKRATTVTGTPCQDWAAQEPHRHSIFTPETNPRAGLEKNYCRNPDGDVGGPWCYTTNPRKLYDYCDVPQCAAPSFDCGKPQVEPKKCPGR

What is called pKi is −log10 of the Ki, conventionally taken in molar units. In general, half-life refers to how long it takes for the measured level to halve. A low value points to rapid decline. As to `N=C(N)c1ccc(CNC(=O)[C@H](CO)NC(=O)[C@@H](CO)NS(=O)(=O)Cc2ccccc2)cc1` [R=H, X=CH, R1=CH2—OH, Benzylsulfonyl-dSer-Ser-4-amidinobenzylamide×TFA], the pKi was 7.60 on uPA, 6.12 on plasmin and 4.85 on thrombin. The half-life in series [1] is 30 min. The “number of lung metastases as compared with the control group (100%)” value in series [2] came to 4.6%.

As for “Benzylsulfonyl-dSer-Lys(CO—O-PEG5000-OMe)-4-amidinobenzylamide×Acetate [Example 9]”, the pKi at uPA was 7.02; on plasmin, 6.14; on trypsin it was 7.47; on thrombin, 5.77.
